Source: ChEMBL document CHEMBL3751764, “Synthesis and in vitro antiproliferative activity of novel pyrazolo[3,4-d]pyrimidine derivatives” (Medchemcomm, 2015)

Tests used:
Type in all cases: functional
[1] = Cytotoxicity against human Caki1 cells assessed as cell growth at 10 uM after 72 hrs by SRB assay relative to control; settings: CAKI-1, 72 h, read-out: Activity
[2] = Cytotoxicity against human SNB75 cells assessed as cell growth at 10 uM after 72 hrs by SRB assay relative to control; settings: SNB-75, 72 h, read-out: Activity
ACHN = experiment: Cytotoxicity against human ACHN cells assessed as cell growth at 10 uM after 72 hrs by SRB assay relative to control; settings: read-out: Activity
[3] = Cytotoxicity against human SKOV3 cells assessed as cell growth at 10 uM after 72 hrs by SRB assay relative to control; settings: SK-OV-3, 72 h, read-out: Activity
MDA-MB-435 = experiment: Cytotoxicity against human MDA-MB-435 cells assessed as cell growth at 10 uM after 72 hrs by SRB assay relative to control; settings: MDA-MB-435, 72 h, read-out: Activity
[4] = Cytotoxicity against human SNB19 cells assessed as cell growth at 10 uM after 72 hrs by SRB assay relative to control; settings: SNB-19, 72 h, read-out: Activity
[5] = Cytotoxicity against human SF268 cells assessed as cell growth at 10 uM after 72 hrs by SRB assay relative to control; settings: SF-268, 72 h, read-out: Activity
Malme-3M = experiment: Cytotoxicity against human MALME-3M cells assessed as cell growth at 10 uM after 72 hrs by SRB assay relative to control; settings: read-out: Activity
[6] = Cytotoxicity against human UACC62 cells assessed as cell growth at 10 uM after 72 hrs by SRB assay relative to control; settings: UACC-62, 72 h, read-out: Activity
[7] = Cytotoxicity against human COLO205 cells assessed as cell growth at 10 uM after 72 hrs by SRB assay relative to control; settings: COLO 205, 72 h, read-out: Activity
[8] = Cytotoxicity against human MOLT4 cells assessed as cell growth at 10 uM after 72 hrs by SRB assay relative to control; settings: MOLT-4, 72 h, read-out: Activity
[9] = Cytotoxicity against human OVCAR4 cells assessed as cell growth at 10 uM after 72 hrs by SRB assay relative to control; settings: OVCAR-4, 72 h, read-out: Activity
HT-29 = experiment: Cytotoxicity against human HT-29 cells assessed as cell growth at 10 uM after 72 hrs by SRB assay relative to control; settings: HT-29, 72 h, read-out: Activity
NCI-H226 = experiment: Cytotoxicity against human NCI-H226 cells assessed as cell growth at 10 uM after 72 hrs by SRB assay relative to control; settings: NCI-H226, 72 h, read-out: Activity
[10] = Cytotoxicity against human NCI-ADR-RES cells assessed as cell growth at 10 uM after 72 hrs by SRB assay relative to control; settings: read-out: Activity
[11] = Cytotoxicity against human HL-60(TB) cells assessed as cell growth at 10 uM after 72 hrs by SRB assay relative to control; settings: HL-60, 72 h, read-out: Activity
MDA-MB-231 = experiment: Cytotoxicity against human MDA-MB-231 cells assessed as cell growth at 10 uM after 72 hrs by SRB assay relative to control; settings: MDA-MB-231, 72 h, read-out: Activity
KM12 = experiment: Cytotoxicity against human KM12 cells assessed as cell growth at 10 uM after 72 hrs by SRB assay relative to control; settings: KM12, 72 h, read-out: Activity
[12] = Cytotoxicity against human HOP62 cells assessed as cell growth at 10 uM after 72 hrs by SRB assay relative to control; settings: HOP-62, 72 h, read-out: Activity
NCI-H460 = experiment: Cytotoxicity against human NCI-H460 cells assessed as cell growth at 10 uM after 72 hrs by SRB assay relative to control; settings: NCI-H460, 72 h, read-out: Activity
A498 = experiment: Cytotoxicity against human A498 cells assessed as cell growth at 10 uM after 72 hrs by SRB assay relative to control; settings: A498, 72 h, read-out: Activity
[13] = Cytotoxicity against human IGROV1 cells assessed as cell growth at 10 uM after 72 hrs by SRB assay relative to control; settings: IGROV-1, 72 h, read-out: Activity
SR = experiment: Cytotoxicity against human SR cells assessed as cell growth at 10 uM after 72 hrs by SRB assay relative to control; settings: read-out: Activity
SK-MEL-28 = experiment: Cytotoxicity against human SK-MEL-28 cells assessed as cell growth at 10 uM after 72 hrs by SRB assay relative to control; settings: SK-MEL-28, 72 h, read-out: Activity
[14] = Cytotoxicity against human HOP92 cells assessed as cell growth at 10 uM after 72 hrs by SRB assay relative to control; settings: HOP-92, 72 h, read-out: Activity
M14 = experiment: Cytotoxicity against human M14 cells assessed as cell growth at 10 uM after 72 hrs by SRB assay relative to control; settings: M14, 72 h, read-out: Activity
T47D = experiment: Cytotoxicity against human T47D cells assessed as cell growth at 10 uM after 72 hrs by SRB assay relative to control; settings: read-out: Activity
[15] = Cytotoxicity against human HCT15 cells assessed as cell growth at 10 uM after 72 hrs by SRB assay relative to control; settings: HCT-15, 72 h, read-out: Activity
[16] = Cytotoxicity against human SF295 cells assessed as cell growth at 10 uM after 72 hrs by SRB assay relative to control; settings: SF-295, 72 h, read-out: Activity
U-251 = experiment: Cytotoxicity against human U251 cells assessed as cell growth at 10 uM after 72 hrs by SRB assay relative to control; settings: U-251, 72 h, read-out: Activity
786-0 = experiment: Cytotoxicity against human 786-0 cells assessed as cell growth at 10 uM after 72 hrs by SRB assay relative to control; settings: 786-0, 72 h, read-out: Activity
SN12C = experiment: Cytotoxicity against human SN12C cells assessed as cell growth at 10 uM after 72 hrs by SRB assay relative to control; settings: read-out: Activity
[17] = Cytotoxicity against human OVCAR5 cells assessed as cell growth at 10 uM after 72 hrs by SRB assay relative to control; settings: OVCAR-5, 72 h, read-out: Activity
[18] = Cytotoxicity against human OVCAR3 cells assessed as cell growth at 10 uM after 72 hrs by SRB assay relative to control; settings: OVCAR-3, 72 h, read-out: Activity
[19] = Cytotoxicity against human Hs 578T cells assessed as cell growth at 10 uM after 72 hrs by SRB assay relative to control; settings: read-out: Activity
MCF7 = experiment: Cytotoxicity against human MCF7 cells assessed as cell growth at 10 uM after 72 hrs by SRB assay relative to control; settings: MCF7, 72 h, read-out: Activity
[20] = Cytotoxicity against human HCC2998 cells assessed as cell growth at 10 uM after 72 hrs by SRB assay relative to control; settings: HCC 2998, 72 h, read-out: Activity

| SMILES | growth at 10 µM [1] [%] | growth at 10 µM [2] [%] | growth at 10 µM (ACHN) [%] | growth at 10 µM [3] [%] | growth at 10 µM (MDA-MB-435) [%] | growth at 10 µM [5] [%] | growth at 10 µM (Malme-3M) [%] | growth at 10 µM [6] [%] | growth at 10 µM [7] [%] | growth at 10 µM [8] [%] | growth at 10 µM [9] [%] | growth at 10 µM (HT-29) [%] | growth at 10 µM (NCI-H226) [%] | growth at 10 µM [10] [%] | growth at 10 µM [11] [%] | growth at 10 µM (KM12) [%] | growth at 10 µM [12] [%] | growth at 10 µM (NCI-H460) [%] | growth at 10 µM (A498) [%] | growth at 10 µM [13] [%] | other results |
| --- | --- | --- | --- | --- | --- | --- | --- | --- | --- | --- | --- | --- | --- | --- | --- | --- | --- | --- | --- | --- | --- |
| O=C(NC1CCCCC1)c1ccc(Nc2ncnc3c2cnn3-c2ccccc2)cc1 | 62.3 | -20.4 | 54.3 | 54 | 81.2 | 36.9 | 2.93 | 63.9 | 65.4 | 89.5 | 30.3 | 70.2 | 19.1 | 74.2 | 106 | 88.5 | -66.5 | 42.2 | 50.4 | 71.1 | growth at 10 µM [4]: 48.7%; growth at 10 µM (MDA-MB-231): 8.76%; growth at 10 µM (SR): 67.5%; growth at 10 µM (SK-MEL-28): 62.2%; growth at 10 µM [14]: 37.7%; growth at 10 µM (M14): 69.1%; growth at 10 µM (T47D): 76.8%; growth at 10 µM [15]: 66.6%; growth at 10 µM [16]: 73.4%; growth at 10 µM (U-251): 40.2%; growth at 10 µM (786-0): 72.1%; growth at 10 µM (SN12C): 19%; growth at 10 µM [17]: 80.3%; growth at 10 µM [18]: 87.4%; growth at 10 µM [19]: 0.22%; growth at 10 µM (MCF7): 82.8% |
| O=c1sc2cc(Nc3ncnc4c3cnn4-c3ccccc3)ccc2n1Cc1ccc(Cl)cc1 | 71.6 | 88.3 | 74.6 | 101 | 84.2 | 85.6 | 86.4 | 58.3 | 92.7 | 58.6 | 87 | 106 | 71.4 | 84.8 | 66.9 | 71.6 | 94 | 83.5 | 59 | 81.8 | growth at 10 µM [4]: 85.6%; growth at 10 µM (MDA-MB-231): 57.7%; growth at 10 µM (SR): 80.6%; growth at 10 µM (SK-MEL-28): 90.1%; growth at 10 µM [14]: 64.4%; growth at 10 µM (M14): 82.8%; growth at 10 µM (T47D): 62.3%; growth at 10 µM [15]: 86.5%; growth at 10 µM [16]: 87.2%; growth at 10 µM (U-251): 96.6%; growth at 10 µM (786-0): 93.7%; growth at 10 µM (SN12C): 75%; growth at 10 µM [17]: 75.1%; growth at 10 µM [18]: 86.6%; growth at 10 µM [19]: 81.1%; growth at 10 µM (MCF7): 85.3% |
| Clc1ccc(-n2ncc3c(Nc4ccc(OCc5ccccc5)cc4)ncnc32)cc1 | 93.7 | 86.4 | 98.6 | 99.7 | 83.2 | 99.7 | 85.1 | 105 | 91.2 | 89.6 | 80.6 | 84.7 | 102 | 94.5 | 86.9 | 80.2 | 81.6 | 93.1 | 85.2 | 102 | growth at 10 µM (SR): 83.3%; growth at 10 µM (SK-MEL-28): 90.4%; growth at 10 µM [14]: 97.8%; growth at 10 µM (M14): 93.6%; growth at 10 µM (T47D): 82.5%; growth at 10 µM [15]: 87.2%; growth at 10 µM [16]: 97.8%; growth at 10 µM [20]: 98%; growth at 10 µM (U-251): 95%; growth at 10 µM (786-0): 103%; growth at 10 µM [17]: 92.8%; growth at 10 µM [18]: 102%; growth at 10 µM [19]: 96.6%; growth at 10 µM (MCF7): 95.9% |
